Test results: patent US20240207282A1, “METHOD OF INCREASING CHAPERONE MEDIATED AUTOPHAGY BY STABILIZING THE INTERACTION OF RETINOIC ACID RECEPTOR-ALPHA AND AN INHIBITOR” (ALBERT EINSTEIN COLLEGE OF MEDICINE, priority 2021, published 2024)

Key:
[1] = test system: human cells; test: CMA activity, KFERQ-PS-Dendra reporter in human cells; format: cell-based
Method: Cells: NIH3T3 mouse fibroblasts and the N2a neuroblastoma cell line were obtained from the American Type Culture Collection and were validated by genomic PCR. Primary human fibroblasts (GM01651) were from Coriell Repository. All the cells lines were tested for mycoplasma contamination using DNA staining protocol with Hoechst 33258 dye. Knock-down of NCoR1 was done using lentiviral mediated shRNA (SHCLNG-NM_011308) from the Sigma Mission library following standard procedures. Efficiency of knock-down was tested by immunoblot. Cell viability was measured using the CellTiter-Blue kit (Promega) 24 h after the addition of the different stressors according to manufacturer's instructions.
CMA activity: Cells were transduced with lentivirus carrying the KFERQ-PS-Dendra reporter as before. Cells were photoactivated by exposure to a 3.5 mA (current constant) light emitting diode (LED: Norlux, 405 nm) for 3 min and then plated in glass-bottom 96 well plates. At the desired times, cells were fixed with 4% PFA and imaged using high-content microscopy (Operetta system, Perkin Elmer). Images were quantified using the manufacturer's software in a minimum of 1,200 cells in 9 independent fields per well. […] To avoid con-funding effects for drug-induced changes in cell volume or adherence to the plate that could bring a fraction of the cells per field outside of focus, we set a threshold to count only cells that have at least 1/10 of the average number of […] detected in the untreated wells for each cell type (3-4 puncta/cell in the case of NIH3T3 and N2a cells and 5 puncta/cell in primary human fibroblasts). […] Slices were mounted in DAPI-Fluoromount-G to highlight the cell nucleus and allow quantification of puncta per cell. Images were acquired in x-y-z planes with an Axiovert 200 fluorescence microscope (Carl Zeiss Ltd) with a ×63 objective and 1.4 numerical aperture, mounted with an ApoTome.2 slider or with a Confocal microscope (TCS SP5; Leica) using an HCX Plan Apo CS×63.0 1.40 NA oil objective and the Leica Application Suite X (LAS X).

[2] = test system: NIH3T3; test: Intracellular proteolysis of long half-life proteins (3H-leucine); format: cell-based, mouse; conditions: 10 μM; duration of increase after addition
Method: Proteolysis was calculated from aliquots of the medium taken at different times and precipitated in trichloroacetic acid, as the amount of acid-precipitable radioactivity transformed to acid-soluble radioactivity at each time.

[3] = test system: CMA network; test: Comparative transcriptomic analysis / qPCR of CMA network; format: cell-based, mouse; conditions: for changes in the transcriptome: treated cells
Method: mRNA-qPCR: RNA was extracted from individual retinas. Total RNA from retinas was extracted using TRIzol Reagent (Invitrogen), and reverse transcription performed using the High-Capacity cDNA Reverse Transcription Kit (Applied Biosystems) according to the manufacturer's instructions. Quantitative real-time PCR was performed in a Light Cycler 480 Instrument (Roche) with Taqman Universal PCR Master Mix using Taqman assays (Life Tech-nologies). The following probes were used: Mm01184405_m1 (rhodopsin), F-5′-CTTAGCTTCTGGGATGC CCC-3′, R-5′-[…]-3′ (lamp2a) F-5′-AA GGACTCCTA TAGTGGG TGACGA-3′, R-5′-[…]-3′ (mouse β-actin).
Microarray: Total RNA of the treated cells was extracted using TRIzol (Invitrogen) and purified with RNeasy chromatography (Qiagen). Cy3-labeled RNA (0.6 μg) from each condition were hybridized to Agilent Mouse 8×60K. Data were processed using the oligo package and normalized using Robust Multiarray Average (RMA) method. Gene set was filtered to remove genes without Entrez or GO annotation (21912 genes out of 55682) and genes with an […]. The full microarray Gomez-Sintes et al. raw data will be deposited in GEO upon acceptance of the manuscript. Pathway analysis was performed using the STRING database ([…]).
CMA index was calculated using data set from Ly (J. Proteome Research (2016) 15: 1350-1359), Gao (2020), and Lane (2020). Briefly, each element of the CMA network was attributed a weight. As LAMP-2A is the rate limiting component of CMA, it was given a weight of 2. Every other element received a weight of 1. Then, every element was attributed direction score that is +1 or −1 based on the known effect of a given element on CMA activity. The score was then calculated as the weighted/directed average of expression counts of every element of the CMA network.

[4] = Pharmacokinetics in mice (plasma and brain); format: in vivo, mouse; conditions: male, ICR (CD-1), mouse, po, administered orally
Method: ICR (CD-1) male mice were fasted at least three hours and water was available ad libitum before the study. Animals were housed in a controlled environment, target conditions: temperature 18 to 29° C., relative humidity 30 to 70%. Temperature and relative humidity was monitored daily. An electronic time controlled lighting system was used to provide a 12 hr light/12 hr dark cycle. 3 mice for each indicated time point were administered 30 mg/Kg CA39 or CA77 by oral gavage or 1 mg/Kg CA39 or CA77 by intravenous injection using 30% PEG-400, 65% D5W (5% dextrose in water), 5% Tween-80 vehicle. Mice were sacrificed, and brain samples were harvested at 0 hr, 0.25 hr, 0.5 hr, 1 hr, 2 hr, 4 hr, 8 hr, 24 hr, and analyzed for CA39 or CA77 levels using LC-MS/MS. Pharmacokinetics parameters were calculated using Phoenix WinNonlin 6.3. Experiments performed at SIMM-SERVIER joint Biopharmacy Laboratory.

[5] = Chronic toxicity in mice (blood count, histopathology); format: in vivo; conditions: chronic (5 months) daily oral administration
Method: Liver, lung and kidneys from CA-treated animals were dissected and fixed in 1% PFA overnight and paraffin embedded. Tissues were sectioned, stained with hematoxylin and eosin (H&E) and analyzed by an expert pathologist, blind to the treatment groups, to score for possible presence of toxicity in these organs. Scoring 1-6 was used assigning 6 to those observations clinically relevant. Individual scoring per parameter and per organ and average scoring per organ were performed. Blood cell count in the groups of mice administered vehicle or CA was analyzed in tail blood drawn monthly and at the moment of tissue dissection using an Oxford Science Forcyte Blood Analysis Unit.

[6] = target: T1, cellular RARα and NCoR1 (Mus musculus, UniProt P11416); test: Streptavidin pulldown of RARα and NCoR1 with biotinylated CA compound; format: binding; conditions: NIH3T3, 10 μM, 24 h
T1 construct: endogenous in cells; host or cells: NIH3T3
T1 sequence (P11416 whole entry): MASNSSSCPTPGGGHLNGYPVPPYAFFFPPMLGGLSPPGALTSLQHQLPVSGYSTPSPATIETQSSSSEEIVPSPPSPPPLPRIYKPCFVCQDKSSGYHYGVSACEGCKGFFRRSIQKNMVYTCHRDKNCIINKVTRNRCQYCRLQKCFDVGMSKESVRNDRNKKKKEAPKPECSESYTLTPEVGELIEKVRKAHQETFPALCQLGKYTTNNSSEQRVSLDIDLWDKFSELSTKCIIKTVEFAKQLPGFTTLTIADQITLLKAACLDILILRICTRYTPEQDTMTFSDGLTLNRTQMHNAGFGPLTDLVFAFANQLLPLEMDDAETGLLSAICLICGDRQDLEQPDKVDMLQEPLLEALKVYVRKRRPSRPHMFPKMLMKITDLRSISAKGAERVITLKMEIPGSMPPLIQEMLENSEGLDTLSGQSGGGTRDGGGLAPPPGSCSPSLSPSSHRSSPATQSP
T1 sequence (Q60974 whole entry partner): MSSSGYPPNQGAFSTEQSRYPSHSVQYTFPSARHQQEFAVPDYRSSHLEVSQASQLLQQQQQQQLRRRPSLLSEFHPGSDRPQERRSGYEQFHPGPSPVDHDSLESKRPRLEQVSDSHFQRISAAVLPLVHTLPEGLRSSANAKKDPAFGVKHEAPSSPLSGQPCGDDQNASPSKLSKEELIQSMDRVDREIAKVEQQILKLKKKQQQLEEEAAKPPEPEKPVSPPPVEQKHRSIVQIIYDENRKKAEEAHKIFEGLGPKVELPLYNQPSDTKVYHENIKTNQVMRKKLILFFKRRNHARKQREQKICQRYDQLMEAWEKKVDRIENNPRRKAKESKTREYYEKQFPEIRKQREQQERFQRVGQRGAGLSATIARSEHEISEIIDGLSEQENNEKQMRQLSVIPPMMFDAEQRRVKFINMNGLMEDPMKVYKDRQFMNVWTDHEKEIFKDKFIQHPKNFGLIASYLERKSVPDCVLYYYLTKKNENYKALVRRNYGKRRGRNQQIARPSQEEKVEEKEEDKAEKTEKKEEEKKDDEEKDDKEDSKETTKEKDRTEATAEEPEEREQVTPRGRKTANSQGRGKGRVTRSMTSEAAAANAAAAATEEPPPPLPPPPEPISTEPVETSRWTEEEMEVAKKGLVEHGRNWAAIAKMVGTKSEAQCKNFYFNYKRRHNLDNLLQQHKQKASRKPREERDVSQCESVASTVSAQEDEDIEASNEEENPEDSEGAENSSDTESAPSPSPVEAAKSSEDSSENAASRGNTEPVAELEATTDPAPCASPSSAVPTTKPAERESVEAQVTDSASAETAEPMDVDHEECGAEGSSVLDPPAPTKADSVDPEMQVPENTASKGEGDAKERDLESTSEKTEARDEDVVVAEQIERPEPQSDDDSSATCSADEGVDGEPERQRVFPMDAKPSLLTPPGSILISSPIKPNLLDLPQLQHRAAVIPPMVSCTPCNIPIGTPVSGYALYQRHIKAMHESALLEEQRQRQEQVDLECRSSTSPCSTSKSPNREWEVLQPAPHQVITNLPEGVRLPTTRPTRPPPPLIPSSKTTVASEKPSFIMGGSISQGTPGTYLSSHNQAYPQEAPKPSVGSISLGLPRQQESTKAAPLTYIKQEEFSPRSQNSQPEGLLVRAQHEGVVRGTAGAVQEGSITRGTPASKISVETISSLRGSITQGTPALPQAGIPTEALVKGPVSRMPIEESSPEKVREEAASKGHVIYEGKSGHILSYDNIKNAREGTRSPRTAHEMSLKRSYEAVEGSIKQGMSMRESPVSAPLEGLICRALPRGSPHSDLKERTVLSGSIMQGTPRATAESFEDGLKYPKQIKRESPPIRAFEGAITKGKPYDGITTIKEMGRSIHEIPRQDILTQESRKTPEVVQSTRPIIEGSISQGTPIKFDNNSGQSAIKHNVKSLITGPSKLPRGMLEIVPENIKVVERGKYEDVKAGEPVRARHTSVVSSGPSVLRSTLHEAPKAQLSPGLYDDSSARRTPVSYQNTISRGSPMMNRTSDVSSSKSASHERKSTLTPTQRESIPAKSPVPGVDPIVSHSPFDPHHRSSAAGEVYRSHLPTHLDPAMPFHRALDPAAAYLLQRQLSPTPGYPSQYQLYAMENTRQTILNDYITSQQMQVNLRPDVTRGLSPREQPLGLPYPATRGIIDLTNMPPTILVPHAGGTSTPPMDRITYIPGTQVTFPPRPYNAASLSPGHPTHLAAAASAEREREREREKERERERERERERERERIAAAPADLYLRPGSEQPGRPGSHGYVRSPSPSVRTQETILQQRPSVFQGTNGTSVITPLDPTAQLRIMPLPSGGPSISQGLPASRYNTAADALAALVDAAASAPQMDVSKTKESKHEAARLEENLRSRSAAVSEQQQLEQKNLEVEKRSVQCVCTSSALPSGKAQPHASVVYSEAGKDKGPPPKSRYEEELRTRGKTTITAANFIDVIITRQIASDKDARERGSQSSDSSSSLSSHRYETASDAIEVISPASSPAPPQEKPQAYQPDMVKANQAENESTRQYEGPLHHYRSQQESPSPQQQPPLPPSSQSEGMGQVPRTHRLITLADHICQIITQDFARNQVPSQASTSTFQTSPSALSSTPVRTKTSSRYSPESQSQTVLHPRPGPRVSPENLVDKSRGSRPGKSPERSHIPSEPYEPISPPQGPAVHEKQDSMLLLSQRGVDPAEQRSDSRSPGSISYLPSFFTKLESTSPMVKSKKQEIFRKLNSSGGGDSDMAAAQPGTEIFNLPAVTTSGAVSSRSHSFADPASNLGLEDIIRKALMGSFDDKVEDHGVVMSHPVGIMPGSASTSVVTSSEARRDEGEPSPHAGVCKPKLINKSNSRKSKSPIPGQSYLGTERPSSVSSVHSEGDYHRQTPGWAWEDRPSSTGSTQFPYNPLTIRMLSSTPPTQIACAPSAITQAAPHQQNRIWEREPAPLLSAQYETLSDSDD

Cc1ccc(C2=Nc3ccc(Cl)cc3OC2)cc1 [AR7, reference compound]
CMA activation [1]: very discrete
intracellular rates of degradation of long-lived proteins [2]: sustained only for the first 12 h after addition of the compound
number of CMA network components with changed expression ([3]; of the 17 currently accepted components): 8
changes in the transcriptome [3]: only induced changes in the expression of a discrete fraction of genes

CC1(C)CC=C(c2cnc3ccccc3c2)c2cc(C(=O)Nc3ccc(C(=O)O)cc3)ccc21 [BMS614]
changes in the transcriptome [3]: marked changes in the transcriptome

CC(=O)Nc1ccc(-c2cnc3cc(Cl)ccc3n2)cc1 [CA77.1]
Kp ([4]; brain/plasma, read-out: AUC brain/plasma): 5.73
half-life ([4]; plasma, read-out: Plasma half-life (converted)): 3 h
peripheral blood or major organ toxicity [5]: lack of peripheral blood or major organ (liver, lung, kidney) toxicity

O=C(CCCC[C@H]1SCC2NC(=O)NC21)NCCCOCCOCCOCCCNC(=O)c1ccc(C2=Nc3ccc(Cl)cc3OC2)cc1 (stereo partly drawn) [biotinylated CA compound]
co-immunoprecipitation of cellular RARα and NCoR1 [6]: could be co-immunoprecipitated
